Results: US9120774B2 (University of Kansas, priority 2009, dated 2015)

Key:
cancer cell lines = experiment: Anti-proliferative activity, statements covering several cancer cell lines; assay type: cell-based; details: SkBr3 and MCF-7, 1 μM
Protocol: Upon completion of synthesis of library of compounds in Examples 23 and 24, the compounds were evaluated for anti-proliferative activity against SkBr3 (Her2 overexpressing breast cancer cells), MCF-7 (estrogen receptor positive breast cancer cells), HCT-116 (colon cancer cells characterized by wild-type p53), PL45 (pancreatic cancer cells), LNCaP (androgen sensitive prostate cancer cells) and PC-3 (androgen independent prostate cancer cells) cell lines. […] The monosubstituted benzamide variants improved activity.
(§1) Cells were maintained in a 1:1 mixture of Advanced DMEM/F12 (Gibco) supplemented with non-essential amino acids, L-glutamine (2 mM), streptomycin (500 ng/mL), penicillin (100 units/mL), and 10% FBS. Cells were grown to confluence in a humidified atmosphere (37° C., 5% CO2), seeded (2000/well, 100 μl) in 96-well plates, and allowed to attach overnight. Compound or GDA at varying concentrations in DMSO (1% DMSO final concentration) was added, and cells were returned to the incubator for 72 hours. At 72 hours, the number of viable cells was determined using an MTS/PMS cell proliferation kit (Promega) per the manufacturer's instructions. Cells incubated in 1% DMSO were used at 100% proliferation, and values were adjusted accordingly. IC50 values were calculated from separate experiments performed in triplicate using GraphPad Prism.
as §1, with “μg/mL),” for “ng/mL),”, “μL)” for “μl)”

primary cortical neurons = experiment: Toxicity of drug alone in neuronal cells (Live-Dead assay); assay type: cell-based
Text: More specifically, primary cortical neurons were recovered from embryonic day 18 rat brains as described previously (Michaelis et al., Immunological Localization And Kinetic Characterization Of A Na+/Ca2+Exchanger In Neuronal And Nonneuronal Cells, Brain Res. 661 104-116 (1994)). Briefly, about 10 to 16 brains were removed from fetuses delivered by cesarean section, and the cortices dissected out. The neurons were isolated and suspended in DMEM/F12 supplemented with 10% FBS and plated on sterile dishes or cover slips coated with 10 μg/ml poly-D-lysine and 5 μg/ml mouse laminin. After 24 hours, the serum-containing medium was removed, and neurons were maintained in Neurobasal medium (Gibco) with 2% B-27 supplements (Gibco). Cells were maintained in culture at 37° C. in 5% CO2 and 97% humidity for 7 to 8 eight days in vitro (DIV) before use. […] Stock solutions of Aβ were prepared in sterile water at a concentration of 1.3 mM and stored at −20° C. Aliquots of the stock solutions were diluted to 1 mM in sterile 50 mM Tris-HCl, pH 7.4, and incubated at 37° C. for 24 hours to promote oligomerization of the peptides prior to treatment of the neurons. The effects of KU-1/A4, GA, Aβ, or the indicated combinations on neuronal viability were determined by monitoring cell survival using the Live-Dead assay as previously described. […] Digital images from 6 fields per dish were captured, and the number of viable (green) and dead (red) cells counted. All experiments were conducted with duplicate dishes from at least two neuronal preparations for each treatment, with about 1,000 cells analyzed/treatment condition. The data are expressed as the fraction of viable cells calculated from the total number of neurons counted under each treatment condition. The significance of differences between cultures exposed to various treatment conditions was determined using Student's t-test.

[1] = system: SkBr3 (Her2 overexpressing breast cancer cells); details: previously published values; cited from earlier work
[2] = system: MCF-7 (estrogen receptor positive breast cancer cells); details: previously published values; cited from earlier work
[3] = system: Hsp90 client protein Her-2 in Skbr3 breast cancer cells; experiment: Degradation of Her-2, Western blot in Skbr3 cells; assay type: cell-based; details: Homo sapiens, SK-BR-3, read-out: IC50 (concentration producing 50% degradation of Her-2), 24 hours, normalized against actin
Protocol: After incubation, the cells were harvested, lysed, and equal amounts of the protein lysates loaded into SDS wells. After electrophoresis, the gel was probed with Her-2 and actin (control) antibodies.

[4] = system: Hsp90-dependent client proteins ErbB2 (Her2) and p53 in SKBr3 breast cancer cells; details: previous studies; cited from earlier work

SMILES	cytotoxicity (cancer cell lines)	cytotoxicity in neuronal cells (primary cortical neurons; 10 μM, 24 hours)	cytotoxicity in neuronal cells (primary cortical neurons; lower concentrations, 72 hours)	IC50 [1] [nM]	IC50 [2] [nM]	IC50 [3] [nM]	concentration inducing degradation of ErbB2 [4]
COC1=C2C[C@@H](C)C[C@H](OC)[C@H](O)[C@@H](C)/C=C(\C)[C@H](OC(N)=O)[C@@H](OC)/C=C\C=C(/C)C(=O)NC(=CC1=O)C2=O [GA, reference compound]	almost complete cytotoxicity	significant cytotoxicity	substantial cytotoxicity	18	133	–	–
CO[C@@H]1[C@@H](OC(N)=O)[C@@H](O)[C@H](Oc2ccc3c(O)c(NC(=O)c4ccc(O)c(CC=C(C)C)c4)c(=O)oc3c2C)OC1(C)C [novobiocin, reference compound]	–	–	–	–	–	700000	about 700 μM
